Experimental data: patent US10227324B2 (Shanghai Haiyan Pharmaceutical Technology Co., Ltd., priority 2014, dated 2019)
Read-outs that look alike come from different tables or passages of the source.

How the values were obtained:
[1] = Metabolism stability assay in liver microsomes; format: in vitro ADME, mouse; conditions: liver microsomal metabolism in mice
Protocol: Buffer A: 1 L solution of 100 mM potassium dihydrogen phosphate containing 1 mM EDTA (Sigma, V900157-100G) was prepared. Buffer B: 1 L solution of 100 mM dipotassium hydrogen phosphate containing 1 mM EDTA was prepared. Buffer C: 700 mL of buffer B was taken out and titrated with buffer A to pH 7.4.
2.1 10 μl of 10 mM compound to be tested and 10 μl of 10 mM ketanserin were taken out and 190 μl of pure acetonitrile was added to each of them to prepare 500 μM compound to be tested and ketanserin, respectively.
2.2 20 μl (20 mg/mL) of liver microsomes (XENOTECH, H0610) stock solution was added to 513.4 μl of buffer C on wet ice. 0.75 mg/mL liver microsomal solution was obtained.
2.3 1.5 μl of each of the above-mentioned compound to be tested and ketanserin solution was added to 498.5 μl of liver microsomal solution (0.7 5 mg/mL) respectively on wet ice. 1.5 μM mixed solution of compound to be tested and 1.5 μM mixed solution of ketanserin were obtained.
2.4 At the time points 0, 5, 15, 30, 45, and 60 min, 30 μl of the mixed solution of compound to be tested and 30 μl of the mixed solution of ketanserin were dispensed into the reaction plate on wet ice, respectively.
2.5 5 mg reduced coenzyme II (Roche, 10621706001) was weighed and dissolved in 1 mL of buffer C. 6 mM reduced coenzyme II solution was obtained. The reduced coenzyme II solution was dispensed into the reaction plate.
2.6 Imipramine was dissolved to give a 10 mM solution. 10 μl imipramine solution was added to 100 mL of blank acetonitrile to generate the internal reference.
2.7 At 0 min, 135 μL of iced acetonitrile (Merck, UN 1648) containing the internal reference was added to each well and then 15 μL of buffer C was added.
2.8 The reaction plate was placed into a 37° C. water bath incubator for 5 min. In the reaction plate, 15 μL of reduced coenzyme II solution was added to each well to initiate the reaction, and the time keeping was started. At the time points of 5, 15, 30, 45, and 60 min, 135 μL of iced acetonitrile containing the internal reference was added to each well to terminate the reaction.
2.9 The reaction plate was sealed with an aluminum film, placed on a vibration mixer and shaken at 500 rpm for 5 min. The plate was then centrifuged in a centrifuge at 3750 rp for 15 min.
2.10 The sample was diluted with pure water in accordance with the ratio of 1:1 and detected by LC/MS.
Half-life: 0.693/K (the slope by plotting based on the incubation time and logarithm of the concentration value)
Clearance ratio: (0.693/half-life)*(1/protein concentration (0.5 mg/mL))*(proportional factor)
Wherein, the K value and the proportional factor were calculated by those skilled in the art according to the methods described in the prior art and contained in the instructions of the liver microsome product.

PI3K-γ kinase (p110γ) = biological target: T1, PI3K-γ kinase (p110γ) (Homo sapiens, UniProt P48736); experiment: Determination of PI3K kinase activity (ADP Transcreener, fluorescence polarization); format: biochemical; conditions: Table 1; ATP 10 μM; read-out: PI3K-γ/nM (IC50 of inhibitory activity against PI3K kinase)
T1 construct: purchased Invitrogen PV4786
In short: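 Each 25 μL reaction held PI3K enzyme (p110α/p85α 3 ng, p110β/p85α 60 ng, p110δ/p85α 90 ng, or p110γ 100 ng), 10 μM ATP, 30 μM PIP2:PS and 2% DMSO, incubated 1 h at 25 °C. Compounds were tested in duplicate across a 3-fold series, 0.00046–1 μM as prepared. ADP was detected by Transcreener fluorescence polarization, quantified against an ADP/ATP standard curve, and IC50 fitted.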

NIH3T3 cells = experiment: Cytotoxicity by MTT assay, NIH3T3; format: cell-based; conditions: cytotoxicity class, read-out: NIH3T3 cell (IC50/nM)
Protocol: The MTT assay procedure and steps were carried out as well known to those skilled in the art, and all the reagents used in the methods were commercially available.
The cells in logarithmic growth phase were digested with 0.25% EDTA trypsin (Gibco, 25200-056) and resuspended in fresh medium. 90 μL of the cell suspension was inoculated into a 96-well cell culture plate (BD Faclon 353072) with a suitable cell density and cultured at 37° C. under 5% CO2. After the cells adhered, 10 μL of the test compound at different concentrations (0.0046-10 μM, 8 concentration points) was added and incubated for another 72 h. 10 μL of MTT (5 mg/mL PBS solution) (Sigma, M5655) was added to react for 4 h. The absorbance at 492 nm was measured by using Thermo Scientific Multiskan MK3 microplate reader and IC50 was calculated using XLFIT 5.0 software (UK IDBS).

[2] = biological target: T2, PI3K-δ kinase (p110δ/p85α) (Homo sapiens, UniProt O00329); experiment: Determination of PI3K kinase activity (ADP Transcreener, fluorescence polarization); format: biochemical; conditions: Table 1; ATP 10 μM; read-out: PI3K-δ/nM (IC50 of inhibitory activity against PI3K kinase)
T2 construct: purchased Millipore 14-604M

[3] = biological target: T3, PI3K-β kinase (p110β/p85α) (Homo sapiens, UniProt P42338); experiment: as above; format: biochemical; conditions: Table 1; ATP 10 μM; read-out: PI3K-β/nM (IC50 of inhibitory activity against PI3K kinase)
T3 construct: purchased Millipore 14-603

[4] = test system: Akt phosphorylation (Ser473-p-Akt) in PC-3 cells; experiment: Inhibition of p-Akt phosphorylation level in PC-3 cells (cell level fluorescence imaging); format: cell-based; conditions: Akt phosphorylation in PC-3 cells, 2 hours incubation; read-out: PC-3 cell (IC50/nM)
Protocol: This experiment was performed by cell level fluorescence image processing method.
Triton X-100: 10% aqueous Triton X-100 solution (Sigma T8787-100 mL) was prepared, stored at 4° C. and diluted by 1:100 to give 0.1% Triton X-100 aqueous solution for use in the experiment.
Prodium Iodide (PI): 1 mg/mL (1.5 mM) PI (Sigma P4170) storage solution was prepared with PBS and stored at −25° C. in the dark. For use, the PI storage solution was diluted with PBS by 1:1000 to give a 1.5 μM solution and used in dark.
PC-3 cells in logarithmic growth phase were digested with 0.25% EDTA trypsin. 3000 cells/90 μL were seeded in a 96-well plate (BD 356692) and cultured at 37° C. and 5% CO2. After the cells adhered, 10 μL of the compound to be tested which was gradiently diluted 3 times (0.0046 to 10 μM, 8 concentration points, in duplicate) was added and incubated for 2 hours, followed by addition of 100 μL of 4% paraformaldehyde (DINGGUO AR-0211) and incubated at room temperature for 45 minutes. Then 100 μL of 0.1% Triton X-100 solution was added and incubated for another 30 minutes.
Triton X-100 solution was removed and the cells were rinsed with 200 μl of PBS twice (300 rpm vibration for 1 minute). The blocking solution (1% BSA solution in PBS) (Genview FA016-100G) was added and incubated at room temperature for 2 hours. The plate was rinsed with PBS once (300 rpm, 1 min) and 30 μL of Ser473-p-Akt antibody (cell signaling 4060L) diluted with 0.1% BSA was added and incubated overnight at 4° C. Ser473-p-Akt antibody was removed and the plate was rinsed with PBS twice (300 rpm, 1 minute). 35 μL of Alexa Flour 488 donkey anti-rabbit IgG (Invitrogen A21206) was added and incubated at room temperature for 1.5 hours. The plate was rinsed with PBS twice (300 rpm, 1 minute) and 35 μL of 1.5 μM PI was added and incubated at room temperature for 0.5 h. The fluorescence intensity was measured with Acumen eX3 (TTP LabTech).
10 μM BEZ235 (Selleck S1009) treatment group was negative control and DMSO treatment group was positive control. Inhibition ratio %=[1−(the mean value of the fluorescence intensity of the compound to be tested−the mean value of the fluorescence intensity of the negative control group)/(the mean value of the fluorescence intensity of the positive control group−the mean value of the fluorescence intensity of the negative control group)]×100%

T47D cells = experiment: Cell inhibitory activity detected by MTT assay, T47D; format: cell-based; conditions: 72 h, read-out: T47D cell (IC50/nM), cell growth inhibition
[5] = biological target: T4, PI3K-α kinase (p110α/p85α) (Homo sapiens, UniProt P42336); experiment: Determination of PI3K kinase activity (ADP Transcreener, fluorescence polarization); format: biochemical; conditions: ATP 10 μM
T4 construct: purchased Invitrogen PV4788
T4 sequence (P42336 whole entry): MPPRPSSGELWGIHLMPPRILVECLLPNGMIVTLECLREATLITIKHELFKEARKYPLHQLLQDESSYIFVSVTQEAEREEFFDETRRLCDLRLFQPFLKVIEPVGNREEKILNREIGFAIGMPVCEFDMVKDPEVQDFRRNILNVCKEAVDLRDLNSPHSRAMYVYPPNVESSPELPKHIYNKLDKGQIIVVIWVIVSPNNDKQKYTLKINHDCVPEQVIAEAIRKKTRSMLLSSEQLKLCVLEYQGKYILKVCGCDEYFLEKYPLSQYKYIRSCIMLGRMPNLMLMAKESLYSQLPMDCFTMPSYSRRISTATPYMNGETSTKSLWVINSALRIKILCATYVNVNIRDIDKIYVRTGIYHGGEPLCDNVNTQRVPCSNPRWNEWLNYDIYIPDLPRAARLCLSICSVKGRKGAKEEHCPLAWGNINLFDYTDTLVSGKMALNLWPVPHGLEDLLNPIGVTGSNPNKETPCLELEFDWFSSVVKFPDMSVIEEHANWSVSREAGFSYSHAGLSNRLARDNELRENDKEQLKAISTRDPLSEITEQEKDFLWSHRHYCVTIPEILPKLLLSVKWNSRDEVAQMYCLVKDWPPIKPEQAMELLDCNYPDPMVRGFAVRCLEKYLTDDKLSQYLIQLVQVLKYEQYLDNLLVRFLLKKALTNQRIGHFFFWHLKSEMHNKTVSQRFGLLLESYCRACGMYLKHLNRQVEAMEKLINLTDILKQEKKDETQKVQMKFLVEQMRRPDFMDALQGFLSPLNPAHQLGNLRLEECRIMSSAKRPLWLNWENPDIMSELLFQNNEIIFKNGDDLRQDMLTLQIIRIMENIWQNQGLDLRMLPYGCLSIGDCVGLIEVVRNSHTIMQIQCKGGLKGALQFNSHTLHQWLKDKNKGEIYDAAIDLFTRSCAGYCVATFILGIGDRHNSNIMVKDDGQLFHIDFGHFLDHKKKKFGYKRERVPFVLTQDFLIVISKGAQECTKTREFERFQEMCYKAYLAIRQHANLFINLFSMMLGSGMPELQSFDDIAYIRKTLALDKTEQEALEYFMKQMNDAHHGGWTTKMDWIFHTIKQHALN
T4 sequence (P27986 whole entry partner): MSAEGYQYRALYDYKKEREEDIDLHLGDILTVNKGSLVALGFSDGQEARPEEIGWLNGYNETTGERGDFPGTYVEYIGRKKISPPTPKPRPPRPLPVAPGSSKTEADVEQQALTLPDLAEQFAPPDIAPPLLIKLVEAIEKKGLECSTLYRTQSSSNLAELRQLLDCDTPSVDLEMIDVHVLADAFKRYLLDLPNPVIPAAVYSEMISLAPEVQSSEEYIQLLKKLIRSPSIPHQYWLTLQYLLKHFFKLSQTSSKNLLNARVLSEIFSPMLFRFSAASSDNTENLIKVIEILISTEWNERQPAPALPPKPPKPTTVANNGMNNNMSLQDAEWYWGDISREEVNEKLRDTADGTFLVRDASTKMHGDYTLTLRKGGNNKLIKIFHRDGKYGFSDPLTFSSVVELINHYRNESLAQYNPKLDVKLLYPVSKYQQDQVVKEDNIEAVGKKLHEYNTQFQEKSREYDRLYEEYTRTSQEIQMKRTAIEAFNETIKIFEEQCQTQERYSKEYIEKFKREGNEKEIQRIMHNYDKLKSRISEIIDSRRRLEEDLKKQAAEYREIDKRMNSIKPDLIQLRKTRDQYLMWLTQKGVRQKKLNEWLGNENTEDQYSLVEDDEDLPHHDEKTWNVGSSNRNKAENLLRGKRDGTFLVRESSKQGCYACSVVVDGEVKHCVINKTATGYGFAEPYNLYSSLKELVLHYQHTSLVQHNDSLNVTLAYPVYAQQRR

T1 sequence (P48736 whole entry): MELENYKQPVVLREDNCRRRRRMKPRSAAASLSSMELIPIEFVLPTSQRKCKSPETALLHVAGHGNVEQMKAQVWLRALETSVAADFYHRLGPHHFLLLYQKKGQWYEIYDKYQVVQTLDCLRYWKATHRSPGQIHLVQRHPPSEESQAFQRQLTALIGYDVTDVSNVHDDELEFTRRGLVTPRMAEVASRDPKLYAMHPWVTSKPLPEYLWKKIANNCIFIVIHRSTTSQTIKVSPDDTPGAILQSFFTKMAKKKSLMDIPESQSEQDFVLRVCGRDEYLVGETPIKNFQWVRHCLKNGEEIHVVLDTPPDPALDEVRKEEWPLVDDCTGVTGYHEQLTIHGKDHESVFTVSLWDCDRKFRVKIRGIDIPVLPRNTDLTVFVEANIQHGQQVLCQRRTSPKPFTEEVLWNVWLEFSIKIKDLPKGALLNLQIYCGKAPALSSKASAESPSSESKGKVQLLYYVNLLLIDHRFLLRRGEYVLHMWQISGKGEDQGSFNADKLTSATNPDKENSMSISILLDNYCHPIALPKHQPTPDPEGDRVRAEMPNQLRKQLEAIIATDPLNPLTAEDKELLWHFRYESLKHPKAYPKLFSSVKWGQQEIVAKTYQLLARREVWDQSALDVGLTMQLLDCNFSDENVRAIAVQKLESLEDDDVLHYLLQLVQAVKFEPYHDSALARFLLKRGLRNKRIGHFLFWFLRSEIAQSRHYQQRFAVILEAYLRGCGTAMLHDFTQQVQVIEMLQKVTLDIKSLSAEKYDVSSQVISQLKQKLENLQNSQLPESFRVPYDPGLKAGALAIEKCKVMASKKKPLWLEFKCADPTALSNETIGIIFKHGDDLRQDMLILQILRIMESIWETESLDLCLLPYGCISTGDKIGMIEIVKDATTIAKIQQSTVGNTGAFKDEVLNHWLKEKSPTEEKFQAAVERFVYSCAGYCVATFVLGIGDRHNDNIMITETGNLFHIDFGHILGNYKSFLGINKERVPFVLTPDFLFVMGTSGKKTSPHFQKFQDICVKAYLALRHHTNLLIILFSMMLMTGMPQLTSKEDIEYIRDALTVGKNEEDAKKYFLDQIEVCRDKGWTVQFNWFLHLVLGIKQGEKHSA
T3 sequence (P42338 whole entry): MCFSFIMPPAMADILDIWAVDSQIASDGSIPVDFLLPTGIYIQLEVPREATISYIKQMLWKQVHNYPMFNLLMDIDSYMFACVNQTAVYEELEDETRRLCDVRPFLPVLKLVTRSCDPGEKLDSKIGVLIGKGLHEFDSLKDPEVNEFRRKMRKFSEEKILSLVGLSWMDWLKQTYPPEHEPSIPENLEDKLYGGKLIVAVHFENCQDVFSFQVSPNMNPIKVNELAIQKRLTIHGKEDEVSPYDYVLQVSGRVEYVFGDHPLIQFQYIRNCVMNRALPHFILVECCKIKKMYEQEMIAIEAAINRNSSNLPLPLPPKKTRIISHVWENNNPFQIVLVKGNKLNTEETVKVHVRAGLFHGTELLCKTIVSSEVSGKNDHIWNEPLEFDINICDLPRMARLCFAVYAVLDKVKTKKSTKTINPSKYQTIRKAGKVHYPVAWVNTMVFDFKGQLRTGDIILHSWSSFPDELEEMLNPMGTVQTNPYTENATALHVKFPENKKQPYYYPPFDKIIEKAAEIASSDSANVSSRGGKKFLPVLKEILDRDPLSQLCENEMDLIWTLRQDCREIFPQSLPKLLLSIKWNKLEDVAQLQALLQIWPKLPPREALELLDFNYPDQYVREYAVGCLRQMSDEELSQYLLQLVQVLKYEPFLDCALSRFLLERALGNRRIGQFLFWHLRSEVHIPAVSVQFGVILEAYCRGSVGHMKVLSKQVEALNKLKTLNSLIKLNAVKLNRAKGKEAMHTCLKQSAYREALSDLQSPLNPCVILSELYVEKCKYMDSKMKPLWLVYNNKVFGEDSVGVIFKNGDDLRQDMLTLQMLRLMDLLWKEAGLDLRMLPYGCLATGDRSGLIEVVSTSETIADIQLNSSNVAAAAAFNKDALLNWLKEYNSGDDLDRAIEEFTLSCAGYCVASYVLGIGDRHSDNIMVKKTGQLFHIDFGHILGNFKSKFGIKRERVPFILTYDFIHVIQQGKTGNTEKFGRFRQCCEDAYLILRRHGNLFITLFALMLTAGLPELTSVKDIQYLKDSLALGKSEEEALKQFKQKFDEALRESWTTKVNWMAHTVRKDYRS
T3 sequence (P27986 whole entry partner): as the sequence (P27986 whole entry partner) above
T2 sequence (O00329 whole entry): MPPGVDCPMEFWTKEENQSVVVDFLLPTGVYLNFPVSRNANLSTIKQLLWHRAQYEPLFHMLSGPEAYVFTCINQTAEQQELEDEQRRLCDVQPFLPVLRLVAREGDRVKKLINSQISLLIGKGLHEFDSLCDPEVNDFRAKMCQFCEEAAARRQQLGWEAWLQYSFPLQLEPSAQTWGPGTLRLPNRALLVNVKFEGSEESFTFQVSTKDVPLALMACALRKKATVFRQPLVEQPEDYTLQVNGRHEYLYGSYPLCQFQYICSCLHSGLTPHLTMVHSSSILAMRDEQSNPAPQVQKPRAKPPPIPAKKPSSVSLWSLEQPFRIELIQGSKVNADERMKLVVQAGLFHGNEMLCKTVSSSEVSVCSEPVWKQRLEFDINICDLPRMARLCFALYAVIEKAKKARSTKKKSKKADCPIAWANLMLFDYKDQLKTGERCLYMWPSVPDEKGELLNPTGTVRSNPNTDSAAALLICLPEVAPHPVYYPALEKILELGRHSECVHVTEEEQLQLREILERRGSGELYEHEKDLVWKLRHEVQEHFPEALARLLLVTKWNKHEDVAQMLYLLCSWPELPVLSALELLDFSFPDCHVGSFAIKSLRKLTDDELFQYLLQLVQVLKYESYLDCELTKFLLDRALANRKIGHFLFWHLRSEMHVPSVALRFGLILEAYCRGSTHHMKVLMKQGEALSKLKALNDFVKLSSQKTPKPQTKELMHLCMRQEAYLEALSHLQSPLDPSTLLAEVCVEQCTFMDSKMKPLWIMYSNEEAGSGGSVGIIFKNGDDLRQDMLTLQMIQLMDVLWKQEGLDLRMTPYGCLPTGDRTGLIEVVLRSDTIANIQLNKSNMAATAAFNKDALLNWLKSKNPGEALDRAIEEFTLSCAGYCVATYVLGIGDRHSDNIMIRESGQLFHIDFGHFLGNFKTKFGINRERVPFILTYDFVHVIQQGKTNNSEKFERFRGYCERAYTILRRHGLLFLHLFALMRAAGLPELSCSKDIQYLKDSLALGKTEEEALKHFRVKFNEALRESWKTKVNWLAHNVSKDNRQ
T2 sequence (P27986 whole entry partner): as the sequence (P27986 whole entry partner) above

Row | Clearance ratio (mL/min/kg) mouse [1] [mL/min/kg] | IC50 (PI3K-γ kinase (p110γ)) [nM] | IC50 [2] [nM] | IC50 [3] [nM] | IC50 [4] [nM] | IC50 (T47D cells) [nM] | IC50 ([5]; Table 2, read-out: PI3K-α/nM (IC50 of inhibitory activity against PI3K-α kinase)) [nM] | IC50 ([5]; Table 1, read-out: PI3K-α/nM (IC50 of inhibitory activity against PI3K kinase)) [nM] | SMILES | IC50 (NIH3T3 cells; Mus musculus, NIH3T3, 72 h) [nM] | IC50 (NIH3T3 cells; 72 h) [nM]
1 | 6337.31 | 843 | 214 | 832 | – | – | – | – | CC(C)(c1cc(-c2cnc(N)cc2C(F)(F)F)nc(N2CCOCC2)n1)S(=O)(=O)c1ccccc1 [Compound S-21] | 1000 to 3000 | –
2 | – | – | – | – | 39 | 449 | 39 | – | CC(C)(O)c1cc(-c2cnc(N)cc2C(F)(F)F)nc(N2CCOCC2)n1 [Compound S-50, 2-(6-(6-amino-4-(trifluoromethyl)pyridin-3-yl)-2-morpholin-4-yl)propan-2-ol] | – | 1000 to 3000
3 | 7163.43 | 813 | 235 | 721 | – | – | – | 37 | Nc1cc(C(F)(F)F)c(-c2cc(C3(S(=O)(=O)c4ccc(F)cc4)CC3)nc(N3CCOCC3)n2)cn1 [Compound S-59] | 1000 to 3000 | –
